# Measurements taken from US5721356A, “Orally active adenosine kinase inhibitors” (Gensia, Inc., priority 1995, dated 1998).
# Where a name gives a salt, the structure may show the parent alone. Read-outs that look alike come from different tables or passages of the source.
# What was measured:
# [1] = target: T1, partially purified pig heart adenosine kinase (Sus scrofa, UniProt A0A5G2R0F5); test: Adenosine kinase (AK) inhibition; type: biochemical
# T1 construct: partially purified pig heart adenosine kinase; from tissue; host or cells: pig heart
# T1 sequence (A0A5G2R0F5 1-362): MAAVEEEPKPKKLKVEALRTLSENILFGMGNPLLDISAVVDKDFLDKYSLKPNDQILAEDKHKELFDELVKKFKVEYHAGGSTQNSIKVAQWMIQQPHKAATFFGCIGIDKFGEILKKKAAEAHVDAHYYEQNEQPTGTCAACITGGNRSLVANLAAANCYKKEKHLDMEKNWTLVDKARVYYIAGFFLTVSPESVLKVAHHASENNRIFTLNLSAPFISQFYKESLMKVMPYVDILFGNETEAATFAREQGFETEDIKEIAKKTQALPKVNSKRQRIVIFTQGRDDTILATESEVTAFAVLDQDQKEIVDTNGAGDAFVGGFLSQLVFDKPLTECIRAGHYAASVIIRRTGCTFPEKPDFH
# Experimental: Adenosine kinase activity was measured essentially as described by Yamada et al. Biochim. Biophys. Acta 660, 36-43 […] with a few minor modifications. Assay mixtures contained 50 mM TRIS-maleate buffer, pH 7.0, 0.1% BSA, 1 mM ATP 1 mM MgCl2, 0.5 μM [U-^14 C]adenosine (400-600 mCi/mmol) and varying duplicate concentrations of inhibitor. The reactions were initiated by addition of approximately 0.1 μU partially purified pig heart adenosine kinase, where one unit is defined as that amount of enzyme required to phosphorylate 1 μmol adenosine per minute. The reactions were incubated for 20 minutes at 37° C. The assay was quenched upon spotting 30 μL aliquots onto 2 cm^2 pieces of Whatman DE81 anion exchange paper. The paper squares were washed for 3 minutes in 6 L distilled/deionized water to remove the unreacted adenosine. […] The amount of ^14 C-AMP was quantified by scintillation counting.
# male SA rats = test: Anticonvulsant activity, maximal electroshock (MES) model, suppression of hind limb tonic extension; type: in vivo; conditions: Rattus norvegicus, 1 h
# [2] = system: carrageenan-induced paw swelling in rats; test: Anti-inflammatory activity, carrageenan paw swelling; type: in vivo, rat; conditions: po, 10 mg/kg, paw swelling 3 hours after carrageenan, vs vehicle
# Experimental: Carrageenan (Type λ) was suspended in sterile PBS at 1% (w/v), autoclaved for 30 minutes, and stored at room temperature. Rats were pretreated with vehicle or AK inhibitor (10 mg/kg) by oral gavage or i.p. administration and the volume of the left hind paw was measured using a water displacement plethysmometer (Stoelting Co., Wood Dale, Ill.). One hour after oral treatment or 30 minutes after i.p. treatment, the rats were briefly anesthetized, and 0.1 ml of the carrageenan solution was injected subcutaneously into the planar surface of the left hind paw. The ensuing paw swelling was measured by plethysmometry after 3 hours. The paw volume in millileters was subtracted from the pre-injection paw volume. Data are presented as the percent inhibition of paw swelling in AK inhibitor treated animals, compared to vehicle treated control animals.
# female SA rats = test: Liver toxicity (serum liver enzymes and total bilirubin); type: in vivo, rat; conditions: iv infusion 2 x 37.5 μmole/kg, 12 hours after second dose
# Experimental: Female SA rats (150-200 g) were anesthetized with halothane and cannulated via the internal jugular vein. The animals wee allowed to recover for 3 days. […] Twelve hours later, an additional 37.5 μmole/kg was infused over 20 minutes (total dose=75 μmole/kg). […] Liver enzymes (serum glutamic-oxaloacetic transaminase (SGOT), serum glutamic-pyruvic transaminase (SGPT), alkaline phosphatase) and total bilirubin in the serum samples were dermined by a commercial laboratory.
# [3] = ip, one hour before seizure testing, >5 or <5 = fewer or more than 50% inhibited in initial screen at 5 mg/kg ip, read-out: Anticonvulsant ED50 (MES), ip
# [4] = po, fasted, one hour before seizure testing, read-out: Anticonvulsant ED50 (MES), po
# [5] = ip, one hour before seizure testing, >5 or <5 = fewer or more than 50% inhibited in initial screen at 5 mg/kg ip
Compound,IC50 [1],ED50 (male SA rats; [4]),ED50 at 5 mg/kg (male SA rats; [5]),further results
COc1ccc(Nc2ncnc3c2c(-c2ccccc2)cn3[C@@H]2O[C@H](C)[C@@H](O)[C@H]2O)cc1 [compound 13],6 nM,> 10 mg/kg,,ED50 (male SA rats; [3]): 2 mg/kg
Cc1ccc(-c2nn([C@@H]3O[C@H](CN=[N+]=[N-])[C@@H](O)[C@H]3O)c3ncnc(Nc4ccccc4)c23)cc1 [compound 93],20 nM,,> 5 mg/kg,
COc1ccc(-c2nn([C@@H]3O[C@H](CN=[N+]=[N-])[C@@H](O)[C@H]3O)c3ncnc(Nc4ccccc4)c23)cc1 [compound 94],3 nM,,> 5 mg/kg,
C[C@H]1O[C@@H](n2nc(-c3ccccc3)c3c(Nc4ccccc4)ncnc32)[C@H](O)[C@@H]1O [compound 86],4.5 nM,> 20 mg/kg,12.3 mg/kg,
C[C@H]1O[C@@H](n2cc(-c3ccccc3)c3c(Nc4cccc(F)c4)ncnc32)[C@H](O)[C@@H]1O [compound 19],2 nM,> 30 mg/kg,0.4 mg/kg,
Cc1ccc(-c2cn([C@@H]3O[C@H](C)[C@@H](O)[C@H]3O)c3ncnc(Nc4ccccc4)c23)cc1 [compound 16],9 nM,8.7 mg/kg,2.3 mg/kg,
C[C@H]1O[C@@H](n2cc(-c3cccc([N+](=O)[O-])c3)c3c(Nc4ccc(F)cc4)ncnc32)[C@H](O)[C@@H]1O [compound 30],28 nM,,> 5 mg/kg,
COc1ccc(Nc2ncnc3c2c(-c2ccccc2)nn3[C@@H]2O[C@H](CN=[N+]=[N-])[C@@H](O)[C@H]2O)cc1 [compound 90],8 nM,,> 3.4 mg/kg,
C[C@H]1O[C@@H](n2cc(-c3ccc(F)cc3)c3c(Nc4ccccc4)ncnc32)[C@H](O)[C@@H]1O [compound 24],,10 mg/kg,2.5 mg/kg,
[N-]=[N+]=NC[C@H]1O[C@@H](n2nc(-c3ccccc3)c3c(Nc4ccccc4)ncnc32)[C@H](O)[C@@H]1O [compound 87],4.5 nM,> 2.3 mg/kg,2.31 mg/kg,
COc1ccc(Nc2ncnc3c2c(-c2ccccc2)nn3[C@@H]2O[C@H](C)[C@@H](O)[C@H]2O)cc1 [compound 89],17 nM,,5 mg/kg,
C[C@H]1O[C@@H](n2cc(-c3ccccc3)c3c(Nc4ccc(N)cc4)ncnc32)[C@H](O)[C@@H]1O [compound 43],3 nM,,< 5 mg/kg,
COc1ccc(-c2cn([C@@H]3O[C@H](C)[C@@H](O)[C@H]3O)c3ncnc(Nc4ccc(C(N)=O)cc4)c23)cc1 [compound 31],2 nM,,> 5 mg/kg,Carrageenan Paw (% inh) [2]: -5.8%
COc1ccc(-c2nn([C@@H]3O[C@H](CN=[N+]=[N-])[C@@H](O)[C@H]3O)c3ncnc(Nc4ccc(C)cc4)c23)cc1 [compound 95],,,> 5 mg/kg,
[N-]=[N+]=NC[C@H]1O[C@@H](n2nc(-c3ccc(Cl)cc3)c3c(Nc4ccccc4)ncnc32)[C@H](O)[C@@H]1O [compound 96],15 nM,,> 5 mg/kg,
C[C@H]1O[C@@H](n2cc(-c3cccc(Cl)c3)c3c(Nc4ccccc4)ncnc32)[C@H](O)[C@@H]1O [compound 15],16 nM,,2.5 mg/kg,"ED50 (male SA rats; po, read-out: Anticonvulsant ED50 (MES), po): > 20 mg/kg"
Cc1cccc(Nc2ncnc3c2c(-c2ccccc2)cn3[C@@H]2O[C@H](C)[C@@H](O)[C@H]2O)c1 [compound 18],4 nM,> 40 mg/kg,3.8 mg/kg,
C[C@H]1O[C@@H](n2cc(-c3ccccc3)c3c(Nc4cccc(Cl)c4)ncnc32)[C@H](O)[C@@H]1O [compound 17],17 nM,,,

Compound,IC50 [1],ED50 (male SA rats; [4]),ED50 at 5 mg/kg (male SA rats; [5]),further results
C[C@H]1O[C@@H](n2cc(-c3ccccc3)c3c(Nc4ccc(O)cc4)ncnc32)[C@H](O)[C@@H]1O [compound 20],32 nM,40 mg/kg,,ED50 (male SA rats; [3]): 5.5 mg/kg
C[C@H]1O[C@@H](n2nc(-c3ccccc3)c3c(Nc4ccc(Cl)cc4)ncnc32)[C@H](O)[C@@H]1O [compound 91],,,,"IC50 ([1]; read-out: AK Inhibition (IC50), 0.5 μM [U-14C]adenosine, pH 7.0, 37° C., 20 minutes): 11 nM"
C[C@H]1O[C@@H](n2cc(-c3ccccc3)c3c(Nc4cc(F)cc(F)c4)ncnc32)[C@H](O)[C@@H]1O [compound 10],1 nM,,,ED50 (male SA rats; [3]): 5 mg/kg
C[C@H]1O[C@@H](n2cc(-c3ccccc3)c3c(Nc4ccc(S(N)(=O)=O)cc4)ncnc32)[C@H](O)[C@@H]1O [compound 34],5 nM,,5 mg/kg,Carrageenan Paw (% inh) [2]: -0.2%
CCc1ccc(Nc2ncnc3c2c(-c2ccccc2)cn3[C@@H]2O[C@H](C)[C@@H](O)[C@H]2O)cc1 [compound 29],20 nM,,> 5 mg/kg,
CC(=O)Nc1ccc(Nc2ncnc3c2c(-c2ccccc2)cn3[C@@H]2O[C@H](C)[C@@H](O)[C@H]2O)cc1 [compound 32],0.5 nM,> 5 mg/kg,5 mg/kg,
C[C@H]1O[C@@H](n2cc(-c3ccccc3)c3c(NCc4ccccc4)ncnc32)[C@H](O)[C@@H]1O [compound 38],30 nM,,,ED50 (male SA rats; [3]): > 5 mg/kg
COc1ccc(-c2cn([C@@H]3O[C@H](C)[C@@H](O)[C@H]3O)c3ncnc(Nc4ccc(F)cc4)c23)cc1 [compound 25],10 nM,,3.1 mg/kg,
OC[C@H]1O[C@@H](n2nc(-c3ccccc3)c3c(Nc4ccccc4)ncnc32)[C@H](O)[C@@H]1O [compound 88],5 nM,> 2.6 mg/kg,,ED50 (male SA rats; [3]): 2.62 mg/kg
[N-]=[N+]=NC[C@H]1O[C@@H](n2nc(-c3cccs3)c3c(Nc4ccccc4)ncnc32)[C@H](O)[C@@H]1O [compound 97],,,,"IC50 ([1]; 0.5 μM [U-14C]adenosine, pH 7.0, 37° C., 20 minutes, read-out: AK Inhibition (IC50)): 10 nM; ED50 (male SA rats; [3]): > 5 mg/kg"
C[C@H]1O[C@@H](n2cc(-c3ccccc3)c3c(Nc4ccc(F)c(F)c4)ncnc32)[C@H](O)[C@@H]1O [compound 11],4 nM,,5 mg/kg,
"NC[C@H]1O[C@@H](n2nc(Br)c3c(N)ncnc32)[C@H](O)[C@@H]1O [REF. B, 4amino-1-(5-amino-5-deoxy-1-D-ribofuranosyl)-3-bromopyrazolo[3,4d]pyrimidne HCL]",,,,SGOT (female SA rats): 100 IU/L; SGPT (female SA rats): 41 IU/L; Total Bilirubin (female SA rats): 0.30 mg/dL
[N-]=[N+]=NC[C@H]1O[C@@H](n2nc(-c3ccccc3)c3c(Nc4ccc(Cl)cc4)ncnc32)[C@H](O)[C@@H]1O [compound 92],17 nM,,,
C[C@H]1O[C@@H](n2cc(I)c3c(N)ncnc32)[C@H](O)[C@@H]1O [REF. A],,,,SGPT (female SA rats): 76 IU/L; Total Bilirubin (female SA rats): 0.76 mg/dL
C[C@H]1O[C@@H](n2c(Br)c(-c3ccccc3)c3c(Nc4ccc(F)cc4)ncnc32)[C@H](O)[C@@H]1O [compound 41],42 nM,,> 5 mg/kg,
CSc1ccc(Nc2ncnc3c2c(-c2ccccc2)cn3[C@@H]2O[C@H](C)[C@@H](O)[C@H]2O)cc1 [compound 40],2 nM,> 10 mg/kg,5 mg/kg,
CCOc1ccc(Nc2ncnc3c2c(-c2ccccc2)cn3[C@@H]2O[C@H](C)[C@@H](O)[C@H]2O)cc1 [compound 28],4 nM,,< 5 mg/kg,Carrageenan Paw (% inh) [2]: 31.0%
